Experimental findings from publication PMC12903969, “Discovery of a Novel and Potent Kir4.1 Inhibitor as a Safe and Rapid‐Onset Antidepressant Agent in Mice” (Advanced Science, 2025) are described below.

Read-outs that look alike come from different tables or passages of the source.

Broadly, the inhibition is the change of the read-out against control, counted positive when it falls. The term IC50 denotes the concentration that gives 50% inhibition.

Assay [1] deals with primary cortical astrocytes (native Kir4.1 channels). Description: Patch clamp of primary cultured WT astrocytes (native Kir4.1). It is filed as cell-based, mouse. As to conditions: JX3212 3 µM; BaCl2 100 µM. The protocol: Astrocytes were isolated and cultured as previously described.^[ [16] ^] Briefly, the cortices from P1‐P4 mouse pups were dissected and incubated for 25 min in Hank's Balanced Salt Solution (22.5 ml) with 2.5% trypsin (2.5 ml) at 37 °C. Cells were dissociated in cultured medium (DMEM/F12 supplemented with 10% fetal bovine serum and 1% penicillin and streptomycin) and filtered with a 70‐µm cell strainer. Cell suspensions were cultured in PDL‐pretreated 75‐cm^2 flasks for the initial seven days, with half of the medium replaced every 2 days. Subsequently, the cultures were shaken at 220 rpm for 6 h at 37 °C to remove microglia and oligodendrocytes from the astrocyte layers. The astrocytes were harvested, reseeded in two new flasks, and cultured in an incubator for 14 days. For Kir4.1 deletion in cell cultures, 4‐OH tamoxifen (final concentration: 1 µM, Felixbio) was added into Kir4.1^flox/flox: Aldh1l1‐Cre/ERT2 cortical cultures at DIV 2 and DIV 4, respectively, and completely removed at DIV7 when astrocytes were reseeded in fresh culture medium.
Whole‐cell patch‐clamp recordings were obtained either in transiently transfected CHO‐K1 cells or in primary cultured astrocytes at room temperature using standard patch‐clamp techniques with an Axopatch‐700B amplifier (Axon Instruments). The signals were filtered at 2 kHz and sampled at 20 kHz using the Digidata 1440A interface (Axon Instruments). The resistance of borosilicate glass pipettes was typically 2–4 MΩ when filled with the internal solution. Drug application was facilitated using a BPS perfusion system (ALA Scientific Instruments). Macroscopic currents generated by expressed potassium channels were recorded under the voltage‐clamp conditions with an internal pipette solution composed of (in mM): 140 KCl, 5 NaCl, 1 CaCl2, 1 MgCl2, 10 HEPES, and 10 EGTA, pH 7.2 adjusted with KOH. The external solution contained (in mM): 140 NaCl, 5 KCl, 2 CaCl2, 1 MgCl2, 10 glucose, and 10 HEPES, pH 7.4 adjusted with NaOH. Currents were elicited with a hyperpolarized voltage at −120 mV from the holding potential of −80 mV, followed by a ramp voltage depolarizing to +50 mV. Astrocytic resting membrane potentials were recorded under current‐clamp conditions (I = 0 pA) using standard internal and external solutions, determined immediately after achieving whole‐cell mode.
(Patch clamp records ionic current or voltage across a cell membrane.)

A further assay concerns the target T1, Kir4.1 (Homo sapiens, UniProt P78508).
T1 construct: host or cells: CHO-K1
T1 sequence (P78508 1-379): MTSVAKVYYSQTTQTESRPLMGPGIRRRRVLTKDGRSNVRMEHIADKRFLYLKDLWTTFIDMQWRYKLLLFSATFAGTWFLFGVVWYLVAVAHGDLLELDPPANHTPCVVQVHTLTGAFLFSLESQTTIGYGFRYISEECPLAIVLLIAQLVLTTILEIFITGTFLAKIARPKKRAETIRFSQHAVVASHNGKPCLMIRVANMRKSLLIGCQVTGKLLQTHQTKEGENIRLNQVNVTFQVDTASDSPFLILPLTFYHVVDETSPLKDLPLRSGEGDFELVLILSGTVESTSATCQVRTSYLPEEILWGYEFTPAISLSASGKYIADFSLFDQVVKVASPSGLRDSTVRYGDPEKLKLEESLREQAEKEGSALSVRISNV
As to the kind of experiment: Whole-cell patch clamp, Kir4.1 currents in transfected CHO-K1 cells. It is filed as cell-based. The conditions noted are these: for inhibition at 1 µM: CHO-K1, 1 μM; for inhibition at 10 µM: CHO-K1, 10 μM. In short, it runs like this: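 Transiently transfected CHO-K1 cells (with EGFP), whole-cell voltage clamp at room temperature; pipette 140 mM KCl pH 7.2, bath 140 mM NaCl/5 mM KCl pH 7.4. Currents evoked from −80 mV holding by a step to −120 mV then ramp to +50 mV; compounds applied by perfusion.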

Assay [2] concerns MDA-MB-468 breast cancer cells. As to the kind of experiment: Cytotoxicity test (CCK-8). Format: cell-based. The conditions noted are these: read-out: IC50 ± SD (μM) for MDA-MB-468 Inhibition. In short, it runs like this:
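Cells seeded at 12,000/well in L15 for 24 h, then exposed 48 h to compounds at 0.41-100.00 µM (DMSO <0.4%). Viability by 10% CCK-8, 2 h at 37 °C, absorbance 450 nm, expressed as percent of control.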

Setting [3] is: CHO-K1, 0.5 μM, +50 mV, read-out: Kir4.1 Inhibition ± SD (%) at 0.5 μM, +50 mV.
[4] abbreviates: CHO-K1, 0.5 μM, -120 mV, read-out: Kir4.1 Inhibition ± SD (%) at 0.5 μM, -120 mV.
Setting [5] is: +50 mV, read-out: Kir4.1 Inhibition ± SD (%) at 1 μM, +50 mV.
Where [6] appears, read: -120 mV, read-out: Kir4.1 Inhibition ± SD (%) at 1 μM, -120 mV.
The mark [7] stands for this setting: +50 mV, read-out: Kir4.1 Inhibition ± SD (%) at 10 μM, +50 mV.
The mark [8] stands for this setting: -120 mV, read-out: Kir4.1 Inhibition ± SD (%) at 10 μM, -120 mV.
Where [9] appears, read: Homo sapiens, MDA-MB-468, MDA-MB-468 breast cancer cells.

On to `[Ba+2].[Cl-].[Cl-]` [BaCl2, reference compound], for which the “astrocytic resting membrane potential (in words)” value in assay [1] was “marked depolarization”.

For `c1ccc2c(c1)oc1ccc(Nc3ccnc(NCCCN4CCCCC4)n3)cc12` [JX3244, N^4-(dibenzo[b,d]furan-2-yl)-N^2-(3-(piperidin-1-yl)propyl)pyrimidine-2,4-diamine], the inhibition at 0.5 µM on Kir4.1 (setting [3]) was 74.9 ± 2.12%; at Kir4.1 (setting [4]), 63 ± 5.95%; at Kir4.1 (CHO-K1, 0.5 µM, read-out: Kir4.1 inhibition at 0.5 µM), above 60%. Also, the inhibition at 1 µM is 85.4 ± 3.98% at Kir4.1 (setting [5]) and 74.5 ± 6.63% on Kir4.1 (setting [6]). For the same molecule, the inhibition at 10 µM at Kir4.1 (setting [7]) turned out to be 98.66 ± 0.25%; on Kir4.1 (setting [8]) it was 97 ± 1.09%. Also, the IC50 in assay [2] (setting [9]) is 6.86 ± 0.23 µM.

As for `CC1CCN(CCCNc2nccc(Nc3ccc4oc5ccccc5c4c3)n2)CC1` [JX3245, N^4-(dibenzo[b,d]furan-2-yl)-N^2-(3-(4-methylpiperidin-1-yl)propyl)pyrimidine-2,4-diamine], the inhibition at 0.5 µM is 21.4 ± 6.07% at Kir4.1 (setting [3]) and 9.76 ± 2.44% at Kir4.1 (setting [4]). The values for the inhibition at 1 µM at Kir4.1 (setting [5]) and at Kir4.1 (setting [6]) were 96.35 ± 0.66% and 92.48 ± 0.8%, respectively. Also, the inhibition at 10 µM at Kir4.1 (setting [7]) was 96.84 ± 0.61%; on Kir4.1 (setting [8]) it was 95.5 ± 2.8%. Moreover, the IC50 in assay [2] (setting [9]) is 5.95 ± 0.04 µM.

`COC1CCN(CCCNc2nccc(Nc3ccc4oc5ccccc5c4c3)n2)CC1` [JX3246, N^4-(dibenzo[b,d]furan-2-yl)-N^2-(3-(4-methoxypiperidin-1-yl)propyl)pyrimidine-2,4-diamine]: the inhibition at 1 µM at Kir4.1 (setting [5]) stood at 73 ± 5.77%; at Kir4.1 (setting [6]), 55.4 ± 3.73%. Further, the inhibition at 10 µM was determined as 91.3 ± 3.5% at Kir4.1 (setting [7]) and 89.5 ± 2.33% at Kir4.1 (setting [8]). Also, the half-inhibitory concentration (IC50) in assay [2] (setting [9]) was 9.97 ± 0.62 µM.

For the molecule `CC1CC(C)CN(CCCNc2nccc(Nc3ccc4oc5ccccc5c4c3)n2)C1` (stereo not drawn) [JX3247, N^4-(dibenzo[b,d]furan-2-yl)-N^2-(3-(3,5-dimethylpiperidin-1-yl)propyl)pyrimidine-2,4-diamine], the inhibition at 1 µM was 80.4 ± 8.36% on Kir4.1 (setting [5]) and 66.6 ± 2.75% on Kir4.1 (setting [6]). Besides, the inhibition at 10 µM is 97.75 ± 0.84% on Kir4.1 (setting [7]) and 94.2 ± 2.26% at Kir4.1 (setting [8]). Also, in assay [2] (setting [9]), the IC50 turned out to be 6.03 ± 0.24 µM.

In the case of `c1ccc2c(c1)oc1ccc(Nc3ccnc(NCCCN4CCN(C5COC5)CC4)n3)cc12` [JX3248, N^4-(dibenzo[b,d]furan-2-yl)-N^2-(3-(4-(oxetan-3-yl)piperazin-1-yl)propyl)pyrimidine-2,4-diamine], the inhibition at 1 µM on Kir4.1 (setting [5]) is 21.9 ± 8.36%; on Kir4.1 (setting [6]), 11.5 ± 6.63%. Also, the inhibition at 10 µM on Kir4.1 (setting [7]) is 97.46 ± 0.59%; at Kir4.1 (setting [8]), 81.5 ± 2.87%. In addition, in assay [2] (setting [9]), the IC50 was above 50 µM.

As to `c1ccc2c(c1)oc1ccc(Nc3ccnc(NCCCN4CCCCCC4)n3)cc12` [JX3249, N^2-(3-(azepan-1-yl)propyl)-N^4-(dibenzo[b,d]furan-2-yl)pyrimidine-2,4-diamine], the inhibition at 0.5 µM at Kir4.1 (setting [3]) was determined as 56 ± 5.59%; on Kir4.1 (setting [4]), 46.4 ± 8.18%. Besides, the values for the inhibition at 1 µM at Kir4.1 (setting [5]) and at Kir4.1 (setting [6]) were 92.4 ± 1.44% and 82.2 ± 2.24%, respectively. Moreover, the results for the inhibition at 10 µM at Kir4.1 (setting [7]) and on Kir4.1 (setting [8]) were 98.49 ± 0.04% and 94.9 ± 1.88%, respectively. The IC50 in assay [2] (setting [9]) was 5.1 ± 0.21 µM.

For the molecule `c1ccc2c(c1)oc1ccc(Nc3ccnc(NCCCN4CCCOCC4)n3)cc12` [JX3250, N^2-(3-(1,4-oxazepan-4-yl)propyl)-N^4-(dibenzo[b,d]furan-2-yl)pyrimidine-2,4-diamine], the inhibition at 1 µM on Kir4.1 (setting [5]) came out at 44 ± 9.96%; at Kir4.1 (setting [6]), 30.4 ± 8.64%. Moreover, the inhibition at 10 µM came to 97.4 ± 1.14% on Kir4.1 (setting [7]) and 88.3 ± 4.59% on Kir4.1 (setting [8]). Besides, the half-maximal inhibitory concentration (IC50) in assay [2] (setting [9]) is 12.2 ± 0.87 µM.

Consider “N^4-(1H-indol-5-yl)-N^2-(3-morpholinopropyl)pyrimidine-2,4-diamine [JX3207]”, for which the “Kir4.1 Inhibition ± SD (%) at 1 μM, +50 mV” value at Kir4.1 (1 μM, +50 mV) came out at 30.53 ± 6.87%. Besides, the “Kir4.1 Inhibition ± SD (%) at 1 μM, -120 mV” value at Kir4.1 (1 μM, -120 mV) was 27.52 ± 8.17%. At Kir4.1 (10 μM, +50 mV), the “Kir4.1 Inhibition ± SD (%) at 10 μM, +50 mV” value stood at 93.00 ± 1.73%. Also, the “Kir4.1 Inhibition ± SD (%) at 10 μM, -120 mV” value on Kir4.1 (10 μM, -120 mV) was determined as 92.47 ± 0.40%. Besides, in assay [2] (MDA-MB-468 breast cancer cells), the IC50 stood at 12.3 ± 1.32 µM.
